{"source": "patent US6649745B2", "about": "(priority 2002, dated 2003)", "key": {"immunecompromised mice [1]": {"tested_on": "immunecompromised mice", "assay_type": "in vivo", "details": "for DTH mean ± S.E.: n=12"}, "immunecompromised mice [2]": {"tested_on": "immunecompromised mice", "assay_type": "in vivo", "details": "for Antibody titer % change compared to control / Antibody titer mean ± S.E.: titre on 5th day; for Antibody titer mean ± S.E.: n=12"}, "[3]": {"details": "2.5 mg/kg p.o., day 0-4, immunecompromised mice, foot thickness on 5th day"}, "[4]": {"details": "2.5 mg/kg p.o., day 0-4, immunecompromised mice"}, "[5]": {"details": "0.0006 mg/kg p.o., day 0-4, immunecompromised mice, foot thickness on 5th day"}, "[6]": {"details": "0.0125 mg/kg p.o., day 0-4, immunecompromised mice, foot thickness on 5th day"}, "[7]": {"details": "oral, dose levels 0.0062-0.0125 mg Kg^-1, immunecompromised experimental animals"}, "[8]": {"details": "0.0006 mg/kg p.o., day 0-4, immunecompromised mice"}, "[9]": {"details": "0.0125 mg/kg p.o., day 0-4, immunecompromised mice"}, "[10]": {"details": "250 mg/kg p.o., day 0-4, SRBC-sensitized mice"}}, "note": "Like-named read-outs stand apart in the source and are kept apart here. Marks after values point to notes of the source that are not given here.", "data": [{"compound": "c1ccc([C@H]2CN3CCSC3=N2)cc1", "note": "[LEV, Levamisole, reference compound]", "values": [{"measurement": "DTH % change compared to control", "setting": "immunecompromised mice [1]; [3]", "value": "140*** %"}, {"measurement": "DTH mean ± S.E.", "setting": "immunecompromised mice [1]; [3]", "value": "1.08 ± 0.14"}, {"measurement": "Antibody titer % change compared to control", "setting": "immunecompromised mice [2]; [4]", "value": "89*** %"}, {"measurement": "Antibody titer mean ± S.E.", "setting": "immunecompromised mice [2]; [4]", "value": "6.80 ± 0.30"}]}, {"compound": "3-0-[α-L-rhamnopyranosyl-(1→2)-α-L-rhamnopyranosyl-(1→4)-0-β-D-glucopyranosyl]-25(S)-5β-spirostan-3β-ol [AR-Iv]", "values": [{"measurement": "DTH % change compared to control", "setting": "immunecompromised mice [1]; [5]", "value": "78*** %"}, {"measurement": "DTH mean ± S.E.", "setting": "immunecompromised mice [1]; [5]", "value": "0.80 ± 0.14"}, {"measurement": "DTH % change compared to control", "setting": "immunecompromised mice [1]; [6]", "value": "102*** %"}, {"measurement": "DTH mean ± S.E.", "setting": "immunecompromised mice [1]; [6]", "value": "0.91 ± 0.42"}, {"measurement": "enhancement of cell-mediated immune response", "setting": "immunecompromised mice [1]; [7]", "value": "77.77-102.22%"}, {"measurement": "Antibody titer % change compared to control", "setting": "immunecompromised mice [2]; [8]", "value": "56** %"}, {"measurement": "Antibody titer mean ± S.E.", "setting": "immunecompromised mice [2]; [8]", "value": "5.60 ± 0.33"}, {"measurement": "Antibody titer % change compared to control", "setting": "immunecompromised mice [2]; [9]", "value": "78*** %"}, {"measurement": "Antibody titer mean ± S.E.", "setting": "immunecompromised mice [2]; [9]", "value": "6.41 ± 0.16"}, {"measurement": "potentiation of antibody synthesis", "setting": "immunecompromised mice [2]; [7]", "value": "55.55-69.44%"}]}, {"compound": "Cyclodextrin [reference compound]", "values": [{"measurement": "DTH mean ± S.E.", "setting": "immunecompromised mice [1]; 250 mg/kg p.o., day 0-4, SRBC challenge in footpad on 4th day, foot thickness on 5th day", "value": "0.45 ± 0.24"}, {"measurement": "DTH % change compared to control", "setting": "immunecompromised mice [1]; 250 mg/kg p.o., day 0-4, foot thickness on 5th day", "value": "23* %"}, {"measurement": "Antibody titer % change compared to control", "setting": "immunecompromised mice [2]; [10]", "value": "45* %"}, {"measurement": "Antibody titer mean ± S.E.", "setting": "immunecompromised mice [2]; [10]", "value": "3.60 ± 0.33"}]}]}
